Assay results as given in paper PMC8140105 (Scientific Reports, 2021).

How the values were obtained:
[1] = Multiple time regression (MTR) analysis, blood-to-brain influx; type: in vivo, ICR-CD-1 mice
Protocol: Briefly, 0.1 µmol of the lyophilized peptide was dissolved in 100 µL of phosphate buffer (pH 7.4, 25 mM). A Iodo-Gen coated tube (Thermo Scientific, Merelbeke, Belgium) was first of all rinsed with 1 mL of phosphate buffer. Subsequently, 50 µL of sodium iodide solution (1.1 µmol/mL) and 1 mCi of Na^125I solution (Perking Elmer, Zaventem, Belgium) were transferred into this Iodo-Gen coated tube. The oxidation reaction was allowed to proceed for six minutes at room temperature, after which the iodonium solution was transferred to 50 µL of peptide solution (1 mM). The iodination reaction of the peptide was allowed to proceed for another six minutes at room temperature. Finally, the iodinated peptide was purified using a silver filter (Thermo Scientific, Merelbeke, Belgium).
In order to determine whether the peptide could enter the brain, in vivo multiple time regression (MTR) analysis was performed. ICR-CD-1 mice were anesthetized intraperitoneally using a 40% urethane solution (3 g/kg). […] At specified time points after injection (i.e. 1, 3, 5, 10, 12.5 and 15 min, with start and end in duplicate), blood was obtained from the carotid artery followed by decapitation of the mouse. The isolated brain was weighed and radioactivity measured in a gamma counter for 5 min (Wallac Wizard automatic gamma counter, Perkin Elmer, Shelton, CT, USA), as well as from 50 µL serum, which was obtained by centrifuging the collected blood at 10,000g for 15 min at 21 °C. The linear and biphasic modeling of the multiple time regression analysis was performed as previously described.

[2] = test system: BV-2 cells; experiment: Morphological analysis (ameboid versus branched cells); type: cell-based, murine; conditions: 20 h, n = 6
Protocol: We investigated the morphology since microglia change their morphology from a branched structure to a more round, ameboid structure after activation. BV-2 cells were seeded in 1 × 10^4 cells/well in a 24-well plate (360 µL); this way direct cell–cell contacts, which have an influence on morphology, are avoided. Four hours post-seeding, cells were treated with 40 µL peptide, placebo (H2O), medium or positive control (LPS 1 µg/mL). For the assessment of the morphology, one picture in the center of each well (100 × magnification) was taken after twenty hours with an Olympus CKX53 phase-contrast microscope equipped with an XC30 CCD camera (Olympus NV, Antwerp, Belgium). The number of branched and ameboid cells was counted with the cell counter plugin of ImageJ.

SDLPFEH [PapRIV, heptapeptide (SDLPFEH) quorum sensing peptide originating from the Bacillus cereus group; synthetic, purchased from GL Biochem]
K1 ([1]; 125I-labelled, i.v. (jugular vein), mice, 1–15 min, biphasic model, mean ± standard error): 6.95 ± 6.25 µL/g/min | initial brain influx rate (Ki) ([1]; 125I-labelled, i.v., mice, biphasic model): 6.95 µL/g/min | Tissue brain distribution volume, Vg ([1]; 125I-labelled, i.v., mice, biphasic model, mean ± standard error): 35.70 ± 61.73 µL/g | brain influx class according to the classification system of Stalmans et al. ([1]; classification by influx rate): very high brain influx | fraction of ameboid cells [2]: increased
